Measurements published in BigSolDB 2.1.

A solubility (mole fraction) (in acetone, 283.36 K) of 1e-05, a solubility (mole fraction) (in acetone, 288.2 K) of 1.6e-05 and a solubility (mole fraction) (in acetone, 293.15 K) of 2.7e-05 were found for `CO/N=C(\C(=O)N[C@@H]1C(=O)N2C(C(=O)O)=C(CSC(=O)c3ccco3)CS[C@H]12)c1csc(N)n1.Cl` in this work. For the same compound, the solubility (mole fraction) (in acetone, 298.05 K) was 4.3e-05, the solubility (mole fraction) (in acetone, 302.87 K) was 7e-05 and the solubility (mole fraction) (in acetone, 307.65 K) was 0.00011. For the same compound, the solubility (mole fraction) (in acetone, 313.45 K) was 0.000193, the solubility (mole fraction) (in acetone, 318.4 K) was 0.000313 and the solubility (mole fraction) (in acetone, 322.35 K) was 0.000478. The solubility (mole fraction) (in ethanol, 283.35 K) was 0.00178, the solubility (mole fraction) (in ethanol, 288.15 K) was 0.00192 and the solubility (mole fraction) (in ethanol, 293.15 K) was 0.00209. For the same compound, the solubility (mole fraction) (in ethanol, 298.15 K) was 0.00233, the solubility (mole fraction) (in ethanol, 303.1 K) was 0.00262 and the solubility (mole fraction) (in ethanol, 307.95 K) was 0.00292. The solubility (mole fraction) (in ethanol, 313.55 K) was 0.00335, the solubility (mole fraction) (in ethanol, 318.75 K) was 0.00384 and the solubility (mole fraction) (in ethanol, 322.65 K) was 0.00421. It also gave a solubility (mole fraction) (in isopropanol, 283.2 K) of 0.000235, a solubility (mole fraction) (in isopropanol, 288.2 K) of 0.000255 and a solubility (mole fraction) (in isopropanol, 293.15 K) of 0.000311. It also gave a solubility (mole fraction) (in isopropanol, 298.15 K) of 0.000402, a solubility (mole fraction) (in isopropanol, 303.05 K) of 0.000535 and a solubility (mole fraction) (in isopropanol, 308 K) of 0.000649. It also gave a solubility (mole fraction) (in isopropanol, 312.8 K) of 0.000793, a solubility (mole fraction) (in isopropanol, 318.45 K) of 0.001 and a solubility (mole fraction) (in isopropanol, 324.35 K) of 0.00134. The solubility (mole fraction) (in methanol, 283.25 K) was 0.00952, the solubility (mole fraction) (in methanol, 288.25 K) was 0.00992 and the solubility (mole fraction) (in methanol, 293.15 K) was 0.0105. For the same compound, the solubility (mole fraction) (in methanol, 297.85 K) was 0.0112, the solubility (mole fraction) (in methanol, 300.55 K) was 0.0116 and the solubility (mole fraction) (in methanol, 307.35 K) was 0.0127. The solubility (mole fraction) (in methanol, 313.3 K) was 0.0137, the solubility (mole fraction) (in methanol, 317.95 K) was 0.0148 and the solubility (mole fraction) (in methanol, 320.65 K) was 0.0155. It also gave a solubility (mole fraction) (in n-propanol, 283.55 K) of 0.000534, a solubility (mole fraction) (in n-propanol, 288.55 K) of 0.000573 and a solubility (mole fraction) (in n-propanol, 293.35 K) of 0.000646. For the same compound, the solubility (mole fraction) (in n-propanol, 298.35 K) was 0.000717, the solubility (mole fraction) (in n-propanol, 303.35 K) was 0.000802 and the solubility (mole fraction) (in n-propanol, 308.05 K) was 0.000922. For the same compound, the solubility (mole fraction) (in n-propanol, 312.95 K) was 0.00103, the solubility (mole fraction) (in n-propanol, 317.95 K) was 0.00117 and the solubility (mole fraction) (in n-propanol, 322.75 K) was 0.00135.
